Reference: PubChem BioAssay (NCI)
Where “and” joins values, the source holds several entries; their conditions need not be identical. Equal entries are not always repeated.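 96-well plates; 48 h exposure; 5 concentrations. Endpoints by linear interpolation between flanking doses. Not reached: highest tested concentration assigned. At the GI50, growth is halved. TGI is the concentration that stops growth completely.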

Legend:
Assay in all cases: NCI anticancer screen, dose series, 48 h
SK-MEL-28 melanoma = tested on: SK-MEL-28 melanoma
NCI-H522 lung = tested on: NCI-H522 lung
CCRF-CEM leukemia = tested on: CCRF-CEM leukemia
MALME-3M melanoma = tested on: MALME-3M melanoma
A549 NSCLC = tested on: A549 NSCLC
NCI-H460 lung = tested on: NCI-H460 lung
TK-10 renal = tested on: TK-10 renal
NCI/ADR-RES ovarian = tested on: NCI/ADR-RES ovarian
MDA-MB-435 = tested on: MDA-MB-435
BT-549 breast = tested on: BT-549 breast

SMILES | TGI (SK-MEL-28 melanoma) | TGI (NCI-H522 lung) | TGI (CCRF-CEM leukemia) | TGI (MALME-3M melanoma) | TGI (A549 NSCLC) | TGI (NCI-H460 lung) | TGI (TK-10 renal) | TGI (NCI/ADR-RES ovarian) | TGI (MDA-MB-435) | TGI (BT-549 breast) | GI50 (SK-MEL-28 melanoma) | GI50 (NCI-H522 lung) | GI50 (NCI/ADR-RES ovarian) | GI50 (MDA-MB-435) | GI50 (MALME-3M melanoma) | GI50 (BT-549 breast) | GI50 (A549 NSCLC) | GI50 (TK-10 renal) | GI50 (NCI-H460 lung) | GI50 (CCRF-CEM leukemia)
NC(=O)c1c[se]c(C2OC(COP(=O)(O)CP(=O)(O)OCC3OC(n4cnc5c(N)ncnc54)C(O)C3O)C(O)C2O)n1 (stereo not drawn) | > 100 µM | > 100 µM | > 100 µM | > 100 µM | > 100 µM | > 100 µM | – | – | – | – | – | – | – | – | – | – | – | – | – | –
CC[P+]1(CC)CCCC1 | > 100 µM | – | > 100 µM | > 100 µM | > 100 µM | > 100 µM | > 100 µM | – | – | – | – | – | – | – | – | – | – | – | – | –
COC(=O)C1(F)C(=O)NC(=O)NC1OC (stereo not drawn) | > 100 µM | > 100 µM | > 100 µM | > 100 µM | > 100 µM | > 100 µM | > 100 µM | – | – | – | – | – | – | – | – | – | – | – | – | –
COc1cc([C@H]2c3[nH]c4ccccc4c3C[C@H]3COC(=O)N32)cc(OC)c1O | > 80 µM | – | 12.4 µM | > 100 µM | 29.5 µM | 23.2 µM | 27 µM | > 100 µM | > 100 µM | > 100 µM | – | – | – | – | – | – | – | – | – | –
COc1nc2c(c(O)c(C)c(=O)n2OC2OC(COC(C)=O)C(OC(C)=O)C(OC(C)=O)C2OC(C)=O)c(=O)n1C (stereo not drawn) | > 100 µM | > 100 µM | > 100 µM | – | > 100 µM | > 100 µM | > 100 µM | – | – | – | – | – | – | – | – | – | – | – | – | –
CC1(C)CC(=O)c2c(oc3cc(O)c(O)cc23)C1 | – | 24.3 µM | 92 µM | 94.6 µM | > 100 µM | 85 µM | > 100 µM | – | – | – | – | – | – | – | – | – | – | – | – | –
c1ccc(OCCSCCCCCCCCCCSCCOc2ccccc2)cc1 | > 100 µM | > 100 µM | > 100 µM | 90.4 µM | > 100 µM | > 100 µM | > 100 µM | – | – | – | – | – | – | – | – | – | – | – | – | –
COc1cc2nnn3c4ncccc4c(N=O)c3c2cc1OC | > 100 µM | 28 µM | – | 17.2 µM | > 69.2 µM | 22.8 µM | > 88.6 µM | > 33.6 µM | 32.7 µM | 64.6 µM | 9.1 µM | 3.04 µM | 0.91 µM | 3.55 µM | 3.04 µM | 9.43 µM | 18.2 µM | 7.98 µM | 3.64 µM | –
CCCCCCCCCC(=O)Oc1cccc2onc(C)c12 | > 100 µM | > 100 µM | > 100 µM | > 100 µM | > 100 µM | > 100 µM | > 100 µM | – | – | – | – | – | – | – | – | – | – | – | – | –
Cc1ccc(/C=C2\CNC/C(=C\c3ccc(C)cc3)C2=O)cc1 | 4.05 µM and 4.83 µM | 3.04 µM and 4.63 µM | 7.82 µM and 8.71 µM | 6.37 µM and 38.5 µM | 2.9 µM and > 27.1 µM | 2.62 µM and 9.51 µM | 2.2 µM and 13.9 µM | – | 19.9 µM | 4.28 µM | – | 1.64 µM | – | – | 2.4 µM | – | 0.861 µM | 0.509 µM | 1.21 µM | 2.74 µM
CCC(=O)c1cc([N+](=O)[O-])c(Br)s1 | 15.2 µM | 2.2 µM | – | 3.87 µM | 19.6 µM | 20.9 µM | 28.1 µM | 24.1 µM | 18.7 µM | – | 4.17 µM | 0.904 µM | 6.15 µM | 4.77 µM | 1.85 µM | – | 5.27 µM | 13.8 µM | 6.17 µM | –
